Source: PubChem BioAssay (NCI)
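Tested at 5 concentrations; 48 h exposure; 96-well plates; endpoints linearly interpolated, else capped at highest concentration. GI50 marks 50% less growth. The concentration for full growth arrest is given as TGI.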

Tests used:
Test in all cases: inhibition of tumour cell growth, NCI panel, 48 h
[1] = tested on: KM12 colon
[2] = tested on: UACC-62 melanoma
[3] = tested on: SK-OV-3 ovarian
[4] = tested on: IGROV1 ovarian
[5] = tested on: SR leukemia
[6] = tested on: DU-145 prostate
[7] = tested on: SNB-75 CNS
[8] = tested on: NCI/ADR-RES ovarian
[9] = tested on: MOLT-4 leukemia
[10] = tested on: RXF 393 renal
[11] = tested on: UACC-257 melanoma
[12] = tested on: HOP-92 NSCLC
[13] = tested on: COLO 205 colon
[14] = tested on: SF-268 CNS
[15] = tested on: HCT-15 colon
[16] = tested on: LOX IMVI melanoma
[17] = tested on: HS 578T breast
[18] = tested on: NCI-H522 lung
[19] = tested on: EKVX NSCLC
[20] = tested on: TK-10 renal
[21] = tested on: NCI-H23 lung
[22] = tested on: SF-539 CNS
[23] = tested on: 786-0 renal
[24] = tested on: OVCAR-4 ovarian
[25] = tested on: MDA-MB-435
[26] = tested on: SNB-19 CNS
[27] = tested on: HT29 colon
[28] = tested on: RPMI-8226 leukemia
[29] = tested on: HL-60(TB) leukemia
[30] = tested on: MCF7 breast
[31] = tested on: BT-549 breast
[32] = tested on: M14 melanoma
[33] = tested on: CCRF-CEM leukemia
[34] = tested on: MALME-3M melanoma
[35] = tested on: OVCAR-3 ovarian
[36] = tested on: PC-3 prostate
[37] = tested on: NCI-H460 lung
[38] = tested on: SW-620 colon
[39] = tested on: U251 CNS
[40] = tested on: ACHN renal
[41] = tested on: CAKI-1 renal
[42] = tested on: UO-31 renal
[43] = tested on: SK-MEL-28 melanoma
[44] = tested on: A549 NSCLC
[45] = tested on: SF-295 CNS
[46] = tested on: SN12C renal
[47] = tested on: NCI-H226 lung
[48] = tested on: OVCAR-5 ovarian
[49] = tested on: MDA-MB-231 breast
[50] = tested on: K-562 leukemia
[51] = tested on: OVCAR-8 ovarian
[52] = tested on: A498 renal
[53] = tested on: HCC-2998 colon
[54] = tested on: HCT-116 colon
[55] = tested on: HOP-62 NSCLC
[56] = tested on: T-47D breast
[57] = tested on: SK-MEL-5 melanoma

## COc1ccccc1/C=C/C(=O)/C=C/c1ccccc1O
[1]
  GI50: 369 nM
  TGI: 1500 nM
[2]
  GI50: 1160 nM
  TGI: 2550 nM
[3]
  GI50: 2050 nM
  TGI: 5.6 µM
[4]
  GI50: 344 nM
  TGI: 1920 nM
[5]
  GI50: 390 nM
  TGI: > 100 µM
[6]
  GI50: 1020 nM
  TGI: 2630 nM
[7]
  GI50: 964 nM
  TGI: 2570 nM
[8]
  GI50: 2860 nM
  TGI: 15 µM
[9]
  GI50: 163 nM
[10]
  TGI: 763 nM
[11]
  GI50: 1710 nM
  TGI: 3.63 µM
[12]
  GI50: 1780 nM
  TGI: 6.08 µM
[13]
  GI50: 1110 nM
  TGI: 2490 nM
[14]
  GI50: 1340 nM
  TGI: 6.13 µM
[15]
  GI50: 351 nM
  TGI: 1640 nM
[16]
  GI50: 724 nM
  TGI: 2010 nM
[17]
  GI50: 2250 nM
  TGI: 11.7 µM
[18]
  GI50: 950 nM
  TGI: 2210 nM
[19]
  GI50: 1750 nM
  TGI: 5.63 µM
[20]
  GI50: 2720 nM
  TGI: 5.74 µM
[21]
  GI50: 1500 nM
  TGI: 4.1 µM
[22]
  GI50: 1460 nM
  TGI: 2780 nM
[23]
  GI50: 1600 nM
  TGI: 3.41 µM
[24]
  GI50: 1170 nM
  TGI: 8.83 µM
[25]
  GI50: 1510 nM
  TGI: 3.81 µM
[26]
  GI50: 1480 nM
  TGI: 2940 nM
[27]
  GI50: 853 nM
  TGI: 2750 nM
[28]
  GI50: 164 nM
  TGI: 401 nM
[29]
  GI50: 323 nM
[30]
  GI50: 195 nM
  TGI: 1730 nM
[31]
  GI50: 1390 nM
  TGI: 3.01 µM
[32]
  GI50: 1460 nM
  TGI: 3.17 µM
[33]
  GI50: 200 nM
  TGI: 544 nM
[34]
  GI50: 1820 nM
  TGI: 5.98 µM
[35]
  GI50: 314 nM
  TGI: 1000 nM
[36]
  GI50: 539 nM
  TGI: 2750 nM
[37]
  GI50: 1670 nM
  TGI: 4.39 µM
[38]
  GI50: 392 nM
  TGI: 1470 nM
[39]
  GI50: 326 nM
  TGI: 1280 nM
[40]
  GI50: 1360 nM
  TGI: 2660 nM
[41]
  GI50: 1790 nM
  TGI: 5.53 µM
[42]
  GI50: 359 nM
  TGI: 1610 nM
[43]
  GI50: 1560 nM
  TGI: 3.72 µM
[44]
  GI50: 1270 nM
  TGI: 3.73 µM
[45]
  GI50: 1990 nM
  TGI: 5.23 µM
[46]
  GI50: 1660 nM
  TGI: 5.65 µM
[47]
  GI50: 1710 nM
  TGI: 4.12 µM
[48]
  GI50: 2160 nM
  TGI: 4.39 µM
[49]
  GI50: 1670 nM
  TGI: 4.26 µM
[50]
  GI50: 441 nM
[51]
  GI50: 1260 nM
  TGI: 10.4 µM
[52]
  GI50: 1800 nM
  TGI: 3.32 µM
[53]
  GI50: 1290 nM
  TGI: 2640 nM
[54]
  GI50: 174 nM
  TGI: 379 nM
[55]
  GI50: 3.06 µM
  TGI: 6.63 µM
[56]
  GI50: 488 nM
  TGI: 4.52 µM
[57]
  GI50: 1460 nM
  TGI: 2780 nM
